Experimental findings from patent US11224609B2, “Mithramycin derivatives having increased selectivity and anti-cancer activity” (University of Kentucky Research Foundation, priority 2017, dated 2022) are described below.

Data set [1] relates to PC-3 (prostate cancer, no ETS translocation) cell line. In words: 72 h growth inhibition (GI50) assay in PC-3. Particulars: read-out: PC-3 Prostate cancer No ETS Translocation GI50.
Data set [2] deals with TC-32 (Ewing sarcoma, EWS-FLI1 Type 1) cell line. Particulars: for TC-32 Ewing sarcoma EWS-FLI1 Type 1 GI50: 72 h growth inhibition, TC-32 cells; for GI50 ratio PC-3:TC-32: selectivity, GI50 in PC-3 over GI50 in TC-32.
In the next data set the test system is HCT 116 cells. In words: 72 h GI50 assay in HCT 116. Particulars: read-out: HCT 116 GI50; 72 h growth inhibition.
Data set [3] deals with A-673 Ewing sarcoma cells (EWS-FLI1 Type 1). The data set can be described thus: 72 h GI50 assay in A-673. Particulars: read-out: A-673 EWS-FLI1 Type 1 GI50; 72 h growth inhibition.
Data set [4] concerns TC-71 Ewing sarcoma cells (EWS-FLI1 Type 1). Particulars: 72 h growth inhibition.
For the next data set, the system named is PANC-1 cells. In words: 72 h GI50 assay in PANC-1. Particulars: read-out: PANC-1 GI50; 72 h growth inhibition.
Data set [5] has as its system VCaP prostate cancer cells (TMPRSS2-ERG). In words: 72 h GI50 assay in VCaP.
The subject of data set [6] is ES-7 Ewing sarcoma cells (EWS-FLI1 Type 4). In words: 72 h GI50 assay in ES-7. Particulars: read-out: ES-7 EWS-FLI1 Type 4 GI50; 72 h growth inhibition.
The subject of data set [7] is RD-ES Ewing sarcoma cells (EWS-FLI1 Type 2). In words: 72 h GI50 assay in RD-ES. Particulars: read-out: RD-ES EWS-FLI1 Type 2 GI50; 72 h growth inhibition.
Data set [8] relates to 5838 Ewing sarcoma cells (EWS-ERG). The data set can be described thus: 72 h GI50 assay in 5838.
The test system of data set [9] is ES-8 Ewing sarcoma cells (EWS-FLI1 Type 2). The data set can be described thus: 72 h GI50 assay in ES-8. Particulars: read-out: ES-8 EWS-FLI1 Type 2 GI50; 72 h growth inhibition.
In data set [10] the test system is Ewing sarcoma cell lines (TC-32, 5838, RD-ES, TC-71, A-673, ES-2, ES-7, ES-8). The data set can be described thus: Median GI50 in panel of Ewing sarcoma cell lines.
The next data set has as its system HeLa cells. The data set can be described thus: 72 h GI50 assay in HeLa. Particulars: read-out: HeLa GI50; 72 h growth inhibition.
The next data set has as its system DU 145 cells. The data set can be described thus: 72 h GI50 assay in DU 145. Particulars: read-out: DU 145 GI50; 72 h growth inhibition.
Another data set has as its system DMS 114 cells. In words: 72 h GI50 assay in DMS 114. Particulars: read-out: DMS 114 GI50; 72 h growth inhibition.
The next data set concerns A549 cells. The data set can be described thus: 72 h GI50 assay in A549. Particulars: read-out: A549 GI50; 72 h growth inhibition.
Data set [11] has as its system ES-2 Ewing sarcoma cells (EWS-FLI1 Type 3). In words: 72 h GI50 assay in ES-2. Particulars: read-out: ES-2 EWS-FLI1 Type 3 GI50; 72 h growth inhibition.
The mark [12] stands for this setting: 72 h growth inhibition, PC-3 cells.

Where two headings read alike, the source gives them in different places.

Regarding `COC(=O)C(Cc1cn(Cc2ccccc2)c2ccccc12)NC(=O)C(OC)C1Cc2cc3cc(OC4CC(OC5CC(O)C(O)C(C)O5)C(O)C(C)O4)c(C)c(O)c3c(O)c2C(=O)C1OC1CC(OC2CC(OC3CC(C)(O)C(O)C(C)O3)C(O)C(C)O2)C(O)C(C)O1` (centres unmarked) [Analogue 46], in data set [1] (setting [12]), the GI50 was > 10000 nM. For the same compound, the “TC-32 Ewing sarcoma EWS-FLI1 Type 1 GI50” value in [2] was determined as 2297 nM.

Turning to `C=CCn1cc(CC(NC(=O)C(OC)C2Cc3cc4cc(OC5CC(OC6CC(O)C(O)C(C)O6)C(O)C(C)O5)c(C)c(O)c4c(O)c3C(=O)C2OC2CC(OC3CC(OC4CC(C)(O)C(O)C(C)O4)C(O)C(C)O3)C(O)C(C)O2)C(=O)OC)c2ccccc21` (centres unmarked) [Analogue 47], the 50% growth inhibitory concentration (GI50) in [1] (setting [12]) worked out at 3140 nM. Moreover, in [2], the “TC-32 Ewing sarcoma EWS-FLI1 Type 1 GI50” value was 2715 nM and the “GI50 ratio PC-3:TC-32” value is 1.2.

`COC(=O)C(Cc1c[nH]c2ccc(OC)cc12)NC(=O)C(OC)C1Cc2cc3cc(OC4CC(OC5CC(O)C(O)C(C)O5)C(O)C(C)O4)c(C)c(O)c3c(O)c2C(=O)C1OC1CC(OC2CC(OC3CC(C)(O)C(O)C(C)O3)C(O)C(C)O2)C(O)C(C)O1` (centres unmarked) [Analogue 49]: the concentration for 50% growth inhibition (GI50) in data set [1] (setting [12]) turned out to be 617 nM. Also, in [2], the “TC-32 Ewing sarcoma EWS-FLI1 Type 1 GI50” value is 675 nM and the “GI50 ratio PC-3:TC-32” value was 0.9.

`COC(=O)C(Cc1c[nH]c2ccc([N+](=O)[O-])cc12)NC(=O)C(OC)C1Cc2cc3cc(OC4CC(OC5CC(O)C(O)C(C)O5)C(O)C(C)O4)c(C)c(O)c3c(O)c2C(=O)C1OC1CC(OC2CC(OC3CC(C)(O)C(O)C(C)O3)C(O)C(C)O2)C(O)C(C)O1` (centres unmarked) [Analogue 50]: in data set [1] (setting [12]), the 50% growth inhibitory concentration (GI50) turned out to be 646 nM. Also, in data set [2], the “TC-32 Ewing sarcoma EWS-FLI1 Type 1 GI50” value amounted to 353 nM and the “GI50 ratio PC-3:TC-32” value is 1.8.

On to `COC(=O)C(Cc1c[nH]c2c(-c3ccccc3)cccc12)NC(=O)C(OC)C1Cc2cc3cc(OC4CC(OC5CC(O)C(O)C(C)O5)C(O)C(C)O4)c(C)c(O)c3c(O)c2C(=O)C1OC1CC(OC2CC(OC3CC(C)(O)C(O)C(C)O3)C(O)C(C)O2)C(O)C(C)O1` (centres unmarked) [Analogue 52], for which the GI50 in data set [1] (setting [12]) is > 10000 nM. Besides, the “TC-32 Ewing sarcoma EWS-FLI1 Type 1 GI50” value in [2] was 2402 nM.

`C=CCc1cccc2c(CC(NC(=O)C(OC)C3Cc4cc5cc(OC6CC(OC7CC(O)C(O)C(C)O7)C(O)C(C)O6)c(C)c(O)c5c(O)c4C(=O)C3OC3CC(OC4CC(OC5CC(C)(O)C(O)C(C)O5)C(O)C(C)O4)C(O)C(C)O3)C(=O)OC)c[nH]c12` (centres unmarked) [Analogue 53]: in [1] (setting [12]), the GI50 is 2990 nM. In addition, in data set [2], the “TC-32 Ewing sarcoma EWS-FLI1 Type 1 GI50” value is given as 794 nM and the “GI50 ratio PC-3:TC-32” value was determined as 3.8.

As for `COC(=O)C(Cc1c[nH]c2cc(-n3cc(-c4ccccc4)nn3)ccc12)NC(=O)C(OC)C1Cc2cc3cc(OC4CC(OC5CC(O)C(O)C(C)O5)C(O)C(C)O4)c(C)c(O)c3c(O)c2C(=O)C1OC1CC(OC2CC(OC3CC(C)(O)C(O)C(C)O3)C(O)C(C)O2)C(O)C(C)O1` (centres unmarked) [Analogue 54], in data set [1] (setting [12]), the GI50 came to 5880 nM. Moreover, in [2], the “TC-32 Ewing sarcoma EWS-FLI1 Type 1 GI50” value was 1030 nM and the “GI50 ratio PC-3:TC-32” value was found to be 5.7.

In the case of `COC(=O)C(Cc1c[nH]c2cc(C(F)(F)F)ccc12)NC(=O)C(OC)C1Cc2cc3cc(OC4CC(OC5CC(O)C(O)C(C)O5)C(O)C(C)O4)c(C)c(O)c3c(O)c2C(=O)C1OC1CC(OC2CC(OC3CC(C)(O)C(O)C(C)O3)C(O)C(C)O2)C(O)C(C)O1` (centres unmarked) [Analogue 55], in [1] (setting [12]), the 50% growth inhibitory concentration (GI50) was 2400 nM. In addition, in data set [2], the “TC-32 Ewing sarcoma EWS-FLI1 Type 1 GI50” value stood at 2339 nM and the “GI50 ratio PC-3:TC-32” value is given as 1.0.

In the case of `COC(=O)C(Cc1c[nH]c2cc3ccccc3cc12)NC(=O)C(OC)C1Cc2cc3cc(OC4CC(OC5CC(O)C(O)C(C)O5)C(O)C(C)O4)c(C)c(O)c3c(O)c2C(=O)C1OC1CC(OC2CC(OC3CC(C)(O)C(O)C(C)O3)C(O)C(C)O2)C(O)C(C)O1` (centres unmarked) [Analogue 57], the 50% growth inhibitory concentration (GI50) in data set [1] (setting [12]) was > 10000 nM. Further, the “TC-32 Ewing sarcoma EWS-FLI1 Type 1 GI50” value in data set [2] turned out to be 3505 nM. Moreover, the “fold decrease in activity in the TC-32 cell line” value in data set [2] (compared with the tryptophan parent) is listed as ~34 fold.

In the case of `COC(=O)C(Cc1ccc2ccccc2c1)NC(=O)C(OC)C1Cc2cc3cc(OC4CC(OC5CC(O)C(O)C(C)O5)C(O)C(C)O4)c(C)c(O)c3c(O)c2C(=O)C1OC1CC(OC2CC(OC3CC(C)(O)C(O)C(C)O3)C(O)C(C)O2)C(O)C(C)O1` (centres unmarked) [Analogue 58], the GI50 in data set [1] (setting [12]) turned out to be 1600 nM. In data set [2], the “TC-32 Ewing sarcoma EWS-FLI1 Type 1 GI50” value came to 541 nM and the “GI50 ratio PC-3:TC-32” value is given as 3.0.

As for `COC(=O)C(Cc1cn(C)c2ccccc12)NC(=O)C(Cc1cn(C)c2ccccc12)NC(=O)C(OC)C1Cc2cc3cc(OC4CC(OC5CC(O)C(O)C(C)O5)C(O)C(C)O4)c(C)c(O)c3c(O)c2C(=O)C1OC1CC(OC2CC(OC3CC(C)(O)C(O)C(C)O3)C(O)C(C)O2)C(O)C(C)O1` (centres unmarked) [Analogue 62], in data set [1] (setting [12]), the concentration for 50% growth inhibition (GI50) was > 10000 nM. Further, the “TC-32 Ewing sarcoma EWS-FLI1 Type 1 GI50” value in data set [2] is 7834 nM.

As to `COC(=O)C(Cc1ccccc1)NC(=O)C(Cc1ccccc1)NC(=O)C(OC)C1Cc2cc3cc(OC4CC(OC5CC(O)C(O)C(C)O5)C(O)C(C)O4)c(C)c(O)c3c(O)c2C(=O)C1OC1CC(OC2CC(OC3CC(C)(O)C(O)C(C)O3)C(O)C(C)O2)C(O)C(C)O1` (centres unmarked) [Analogue 63, MTMSA-Phe-Phe], the GI50 in data set [1] (setting [12]) came out at 1130 nM; in the data set with HCT 116 cells it was 437 nM; in [3], 491 nM; in the data set with PANC-1 cells, 1960 nM; in [5] (read-out: VCaP Prostate Cancer TMPRSS2-ERG GI50, 72 h growth inhibition, VCaP cells), 442 nM; in data set [6], 910 nM. Besides, the 50% growth inhibitory concentration (GI50) in [7] stood at 3050 nM; in [8] (read-out: 5838 Ewing Sarcoma EWS-ERG GI50, 72 h growth inhibition, 5838 cells), 579 nM; in [9], 542 nM; in the data set on HeLa cells, 1770 nM; in the data set with DU 145 cells it was 159 nM; in the data set with DMS 114 cells, 2310 nM. Also, the “TC-71 EWS-FLI1 Type 1 GI50” value in [4] is listed as 211 nM. Also, the “Ratio of median GI50 Prostate cells lacking TMPRSS2-ERG:VCaP” value in [5] (selectivity for VCaP over other prostate cancer cell lines) was 2.6. For the same compound, in data set [2], the “TC-32 Ewing sarcoma EWS-FLI1 Type 1 GI50” value was found to be 232 nM. Further, the “GI50 ratio PC-3:TC-32” value in data set [2] came to 4.9. Besides, the “Ratio of median GI50 Non-Ewing sarcoma cell lines (cf Table 3):5838” value in [8] (selectivity for 5838 cells) stood at 3.4. In data set [10] (median GI50 non-Ewing panel over Ewing panel), the “Ratio of Median GI50 non-Ewing sarcoma:Ewing sarcoma (Selectivity Index)” value stood at 3.5. Moreover, in data set [10] (selectivity index relative to MTM (1)), the “Selectivity Index ratio Analogues:MTM (1)” value is on record as 2.3.

`CO[C@H](C(=O)O)[C@@H]1Cc2cc3cc(OC4CC(OC5CC(O)[C@H](O)C(C)O5)[C@H](O)C(C)O4)c(C)c(O)c3c(O)c2C(=O)[C@H]1OC1CC(OC2CC(OC3CC(C)(O)[C@H](O)C(C)O3)[C@@H](O)C(C)O2)[C@H](O)C(C)O1` (some centres unmarked) [MTMSA (2), Mithramycin SA, reference compound]: in [1] (Homo sapiens, PC-3, 72 h), the 50% growth inhibitory concentration (GI50) was > 10000 nM. Also, in data set [2], the “TC-32 Ewing sarcoma EWS-FLI1 Type 1 GI50” value is recorded as >10000 nM.

As to “Mithramycin SA Phenylalanine [MTMSA-Phe (4), reference compound]”, the 50% growth inhibitory concentration (GI50) in data set [1] (setting [12]) was 910 nM; in the data set on HCT 116 cells, 256 nM; in the data set on PANC-1 cells, 261 nM; in the data set with A549 cells, 1240 nM; in data set [6], 156 nM; in data set [7] it was 91 nM. For the same compound, the GI50 amounted to 72 nM in data set [9]; 117 nM in data set [10] (read-out: Median GI50 in Ewing sarcoma cell lines, median over 8 Ewing sarcoma cell lines, 72 h); 545 nM in the data set with HeLa cells; 315 nM in the data set with DU 145 cells; 483 nM in the data set on DMS 114 cells; 261 nM in data set [11]. Further, the “TC-71 EWS-FLI1 Type 1 GI50” value in data set [4] came out at 143 nM. Also, in data set [2], the “TC-32 Ewing sarcoma EWS-FLI1 Type 1 GI50” value was 32 nM.
